The values that follow come from ChEMBL document CHEMBL1201862, “PubChem BioAssay data set” (2004).

Test systems include A498; M14; Malme-3M; DU-145; NCI/ADR-RES; RXF 393; IGROV-1; SR; NCI-H460; K562; KM12; MOLT-4; HOP-62; HCC 2998; OVCAR-8; HT-29; NCI-H23; SK-OV-3; MDA-MB-231; NCI-H226.
Common to all, as to experiment: NCI tumour cell line growth inhibition, 48 h

Where “and” joins values, the source holds several entries; their conditions need not be identical. Equal values may be shown once.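 Cells were grown in 96-well plates and exposed to each compound for 48 hours at five concentrations; endpoints were interpolated linearly between bracketing concentrations, or set to the highest concentration if not reached. The concentration for 50% growth inhibition is given as GI50.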 Calls of active or inactive are those of the source. No stated cut-off is given here; in the data, active = GI50 up to about 1.1 µM and inactive = higher.

Consider `Cc1cccc(C[C@@]2(SCc3ccccc3)C(C)(C)[C@@H]3CC[C@@]2(C)C3)n1`, for which the GI50 with A498 is 15.3 µM (inactive); with M14, 14.7 µM (inactive); in the experiment with Malme-3M, 15.5 µM (inactive); in the experiment with DU-145, 16.9 µM (inactive); in the experiment on NCI/ADR-RES, 13.8 µM (inactive); in the experiment with RXF 393 it was 16.3 µM (inactive). Besides, the GI50 is 15.1 µM (inactive) in the experiment on IGROV-1; 14.6 µM (inactive) in the experiment on SR; 15.6 µM (inactive) in the experiment on NCI-H460; 13.1 µM (inactive) in the experiment on K562; 16.4 µM (inactive) with KM12; 12.6 µM (inactive) in the experiment on MOLT-4. For the same compound, the GI50 with HOP-62 is 23.4 µM (inactive); in the experiment with HCC 2998, 15.4 µM (inactive); in the experiment on OVCAR-8, 16.5 µM (inactive); in the experiment with HT-29 it was 15 µM (inactive); in the experiment on NCI-H23, 13.9 µM (inactive); with SK-OV-3, 20.4 µM (inactive). Further, the GI50 in the experiment with MDA-MB-231 was 14 µM (inactive).

On to `Cc1ccc2oc(=O)c(C(=O)Nc3nc(C45CC6CC(CC(C6)C4)C5)cs3)cc2c1`, for which the GI50 in the experiment on NCI-H226, in the experiment on A498, in the experiment on Malme-3M, with DU-145, in the experiment with NCI/ADR-RES and with RXF 393 was > 100 µM (inactive) in each case. The GI50 with IGROV-1, in the experiment with SR, with NCI-H460, in the experiment with K562, in the experiment with KM12 and with MOLT-4 was > 100 µM (inactive) in each case. The GI50 with HOP-62, in the experiment on HCC 2998, with OVCAR-8, in the experiment with HT-29, with NCI-H23 and in the experiment with MDA-MB-231 was > 100 µM (inactive) each time.

For the compound `COc1ccc(-c2nnc3n(Cc4ccccc4)c4ccccc4n3c2=O)cc1`, the GI50 is 17.4 µM (inactive) in the experiment on NCI-H226; 22.7 µM (inactive) in the experiment on A498; 77.6 µM (inactive) in the experiment on M14; 51.9 µM (inactive) in the experiment on Malme-3M; 59.4 µM (inactive) with DU-145; 55.8 µM (inactive) in the experiment on NCI/ADR-RES. Moreover, the GI50 is 26.8 µM (inactive) with RXF 393; 13.3 µM (inactive) with IGROV-1; > 100 µM (inactive) with SR; 33.5 µM (inactive) with NCI-H460; > 100 µM (inactive) in the experiment with KM12; > 100 µM (inactive) with MOLT-4. The GI50 is 1.92 µM (inactive) with HOP-62; > 100 µM (inactive) with HCC 2998; 30.9 µM (inactive) in the experiment on OVCAR-8; > 100 µM (inactive) in the experiment with HT-29; 31.3 µM (inactive) in the experiment on NCI-H23; 26.1 µM (inactive) with MDA-MB-231.

Regarding `Cc1ccccc1NC(=S)N/N=C(/c1ccccc1)c1ccccn1`, the GI50 in the experiment with NCI-H226 was 0.0295 µM (active); with A498, 0.398 µM (active); with M14, < 0.027 µM (active); with DU-145, 0.838 µM (active); in the experiment with NCI/ADR-RES, < 0.0187 µM (active); in the experiment with RXF 393, 0.589 µM (active). The GI50 in the experiment with IGROV-1 is < 0.01 µM (active); in the experiment with SR, < 0.0262 µM (active); in the experiment with NCI-H460 it was 0.0702 µM (active); with K562, < 0.0282 µM (active); in the experiment on KM12, 0.0405 µM (active); with MOLT-4 it was < 0.0295 µM (active). Further, the GI50 was 0.0331 µM (active) in the experiment on HOP-62; 3.22 µM (inactive) in the experiment with HCC 2998; 0.0279 µM (active) in the experiment on OVCAR-8; < 0.0182 µM (active) with HT-29; < 0.01 µM (active) in the experiment with NCI-H23; 0.0128 µM (active) with SK-OV-3. The GI50 in the experiment with MDA-MB-231 was < 0.01 µM (active).

As to `C#CCOCn1ccc(=O)[nH]c1=O`, the GI50 in the experiment on NCI-H226, with A498, in the experiment with M14, in the experiment with Malme-3M, in the experiment with DU-145 and in the experiment on NCI/ADR-RES was > 100 µM (inactive) in each case. Moreover, the GI50 in the experiment on IGROV-1, in the experiment with SR, with NCI-H460, in the experiment with K562, in the experiment on KM12 and in the experiment with MOLT-4 was > 100 µM (inactive) in each case. The GI50 in the experiment on HOP-62, with HCC 2998, with OVCAR-8, in the experiment on HT-29, with NCI-H23 and in the experiment with SK-OV-3 was > 100 µM (inactive) throughout. Further, the GI50 in the experiment on MDA-MB-231 was > 100 µM (inactive).

As to `COc1ccc2[nH]cc([C@@H]3C4CCC(C4)[C@H]3NCc3cccc(CN[C@H]4C5CCC(C5)[C@@H]4c4c[nH]c5ccc(OC)cc45)c3)c2c1`, the GI50 in the experiment with NCI-H226 was 2.01 µM (inactive) and 1.91 µM (inactive); with A498 it was 1.82 µM (inactive) and 1.78 µM (inactive); in the experiment with M14, 640 nM (active) and 600 nM (active); with Malme-3M it was 1.86 µM (inactive) and 1.88 µM (inactive); with DU-145, 1.67 µM (inactive) and 1.68 µM (inactive); in the experiment on NCI/ADR-RES, 1.55 µM (inactive) and 1.68 µM (inactive). The GI50 is 1.36 µM (inactive) and 1.66 µM (inactive) in the experiment on RXF 393; 1.42 µM (inactive) and 1.58 µM (inactive) in the experiment with IGROV-1; 231 nM (active) and 250 nM (active) in the experiment with SR; 340 nM (active) and 237 nM (active) in the experiment with NCI-H460; 228 nM (active) and 178 nM (active) in the experiment with K562; 463 nM (active) and 643 nM (active) in the experiment with KM12. Besides, the GI50 in the experiment with MOLT-4 was 577 nM (active) and 467 nM (active); with HOP-62, 1.62 µM (inactive) and 1.6 µM (inactive); in the experiment with HCC 2998 it was 339 nM (active) and 256 nM (active); in the experiment with OVCAR-8, 891 nM (active) and 998 nM (active); in the experiment with HT-29, 230 nM (active) and 218 nM (active); in the experiment with NCI-H23 it was 1.75 µM (inactive) and 1.53 µM (inactive). In addition, in the experiment with MDA-MB-231, the GI50 is 1.44 µM (inactive) and 1.2 µM (inactive).

In the case of `Nc1c(S(=O)(=O)O)cc(Nc2cccc(S(N)(=O)=O)c2)c2c1C(=O)c1ccccc1C2=O`, the GI50 with NCI-H226 was > 100 µM (inactive); with A498 it was > 100 µM (inactive); in the experiment with M14, 50.6 µM (inactive); in the experiment with Malme-3M, 36.5 µM (inactive); with DU-145, > 100 µM (inactive); in the experiment with NCI/ADR-RES, > 100 µM (inactive). Besides, the GI50 is 74.3 µM (inactive) in the experiment on RXF 393; > 100 µM (inactive) in the experiment with IGROV-1; > 100 µM (inactive) in the experiment on SR; 87.5 µM (inactive) in the experiment on NCI-H460; > 100 µM (inactive) with K562; 71.6 µM (inactive) in the experiment with KM12. The GI50 is > 100 µM (inactive) with MOLT-4; 23.4 µM (inactive) with HOP-62; > 100 µM (inactive) in the experiment on OVCAR-8; 29.6 µM (inactive) in the experiment on HT-29; 35.1 µM (inactive) in the experiment with NCI-H23; 27.5 µM (inactive) with SK-OV-3. The GI50 with MDA-MB-231 is > 100 µM (inactive).

For `Cc1nc(O)c(O)c(CN2CCCCC2)n1`, the GI50 in the experiment with NCI-H226, with A498, in the experiment on M14, with Malme-3M, in the experiment on DU-145 and in the experiment on NCI/ADR-RES was > 100 µM (inactive) throughout. The GI50 in the experiment with RXF 393, in the experiment with IGROV-1, in the experiment on SR, in the experiment on NCI-H460, with K562 and in the experiment with KM12 was > 100 µM (inactive) throughout. Moreover, the GI50 in the experiment on MOLT-4, in the experiment with HOP-62, in the experiment on OVCAR-8, in the experiment on HT-29, with NCI-H23 and in the experiment on SK-OV-3 was > 100 µM (inactive) in each case. Further, in the experiment on MDA-MB-231, the GI50 is > 100 µM (inactive).

Regarding `CC1(C)Cc2c(sc3[nH]c(=S)[nH]c(=S)c23)CS1`, the GI50 in the experiment on NCI-H226 is 44.5 µM (inactive); with A498, 33 µM (inactive); in the experiment on M14 it was 30.2 µM (inactive); in the experiment with Malme-3M, 20.6 µM (inactive); with DU-145, > 100 µM (inactive); in the experiment with NCI/ADR-RES, 43.4 µM (inactive). For the same compound, the GI50 in the experiment on RXF 393 was 60.8 µM (inactive); in the experiment on IGROV-1 it was 29.9 µM (inactive); in the experiment on SR it was 48.6 µM (inactive); in the experiment with NCI-H460, 40.2 µM (inactive); in the experiment with K562, 29.2 µM (inactive); in the experiment on KM12, 45.8 µM (inactive). For the same compound, the GI50 with MOLT-4 was 43 µM (inactive); in the experiment with HOP-62 it was 88.3 µM (inactive); with OVCAR-8 it was 90.2 µM (inactive); in the experiment with HT-29, 27.1 µM (inactive); in the experiment with NCI-H23, 55.3 µM (inactive); with SK-OV-3 it was 27.7 µM (inactive). For the same compound, the GI50 in the experiment on MDA-MB-231 is 66.8 µM (inactive).

Regarding `C=C1CC(Cn2ccc(=O)[nH]c2=O)(c2ccc(Cl)cc2)OC1=O` (stereo not drawn), the GI50 is 22.9 µM (inactive) in the experiment with NCI-H226; 16.4 µM (inactive) with A498; 3.56 µM (inactive) with M14; 2.46 µM (inactive) with Malme-3M; 9.53 µM (inactive) with DU-145; 4.56 µM (inactive) in the experiment on NCI/ADR-RES. In addition, the GI50 with IGROV-1 was 2.86 µM (inactive); in the experiment on SR, 2.02 µM (inactive); in the experiment on NCI-H460, 9.53 µM (inactive); with K562 it was 0.631 µM (active); in the experiment with KM12, 14 µM (inactive); with MOLT-4, 1.78 µM (inactive). Moreover, the GI50 in the experiment on HOP-62 was 18.2 µM (inactive); with HCC 2998, 13.9 µM (inactive); in the experiment on OVCAR-8, 7.87 µM (inactive); with HT-29, 5.41 µM (inactive); in the experiment with NCI-H23, 5.48 µM (inactive); in the experiment on SK-OV-3, 15 µM (inactive). The GI50 in the experiment with MDA-MB-231 was 14.6 µM (inactive).
